Measurements as given in ChEMBL document CHEMBL1201862, “PubChem BioAssay data set” (2004).
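Test compounds were applied to cells in 96-well plates for 48 hours at 5 doses. GI50 is the concentration that inhibits growth by half.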 Activity calls are given as the source filed them. Rule as the data show it: active = GI50 up to about 1.1 µM and inactive = higher.

Legend:
Assay in all cases: NCI tumour cell line growth inhibition, 48 h
UACC-62 = system: UACC-62
RXF 393 = system: RXF 393
M14 = system: M14
UACC-257 = system: UACC-257
UO-31 = system: UO-31
Malme-3M = system: Malme-3M
DLD-1 = system: DLD-1
SNB-78 = system: SNB-78
NCI-H23 = system: NCI-H23
HCT-15 = system: HCT-15
CCRF-CEM = system: CCRF-CEM
A549 = system: A549
EKVX = system: EKVX
MOLT-4 = system: MOLT-4
TK-10 = system: TK-10
SK-MEL-28 = system: SK-MEL-28
HCT-116 = system: HCT-116
U-251 = system: U-251
HOP-62 = system: HOP-62
SK-OV-3 = system: SK-OV-3
KM12 = system: KM12
HOP-92 = system: HOP-92
KM-20L2 = system: KM-20L2
LXFL 529 = system: LXFL 529
OVCAR-5 = system: OVCAR-5
HT-29 = system: HT-29
HL-60 = system: HL-60
OVCAR-3 = system: OVCAR-3
NCI-H460 = system: NCI-H460
SK-MEL-5 = system: SK-MEL-5
HOP-18 = system: HOP-18
SW-620 = system: SW-620
ACHN = system: ACHN
SF-295 = system: SF-295
SR = system: SR
NCI-H522 = system: NCI-H522
SNB-75 = system: SNB-75
SF-539 = system: SF-539
SK-MEL-2 = system: SK-MEL-2
OVCAR-8 = system: OVCAR-8
IGROV-1 = system: IGROV-1
SN12C = system: SN12C
K562 = system: K562
HCC 2998 = system: HCC 2998
LOX IMVI = system: LOX IMVI
OVCAR-4 = system: OVCAR-4

COC1OC2=CCC3C(=O)NC(=O)C3C2[C@H](OCc2ccccc2)C1OCc1ccccc1 (stereo partly specified)
GI50 (UACC-62): 2.46 µM (inactive)
GI50 (RXF 393): 1.61 µM (inactive)
GI50 (M14): 1.81 µM (inactive)
GI50 (UACC-257): 2.09 µM (inactive)
GI50 (UO-31): 17.7 µM (inactive)
GI50 (Malme-3M): 1.77 µM (inactive)
GI50 (DLD-1): 1.97 µM (inactive)
GI50 (SNB-78): 2.03 µM (inactive)
GI50 (NCI-H23): 2.22 µM (inactive)
GI50 (HCT-15): 1.93 µM
GI50 (CCRF-CEM): 1.15 µM (inactive)
GI50 (A549): 18.9 µM (inactive)
GI50 (EKVX): 1.85 µM (inactive)
GI50 (MOLT-4): 1.5 µM (inactive)
GI50 (TK-10): 1.72 µM (inactive)
GI50 (SK-MEL-28): 1.84 µM (inactive)
GI50 (HCT-116): 1.55 µM (inactive)
GI50 (U-251): 18.7 µM (inactive)
GI50 (HOP-62): 17.9 µM (inactive)
GI50 (SK-OV-3): 17.1 µM (inactive)
GI50 (KM12): 5.9 µM (inactive)
GI50 (HOP-92): 1.63 µM (inactive)
GI50 (KM-20L2): 2.25 µM (inactive)
GI50 (LXFL 529): 1.68 µM (inactive)
GI50 (OVCAR-5): 15.7 µM (inactive)
GI50 (HT-29): 1.82 µM (inactive)
GI50 (HL-60): 1.79 µM (inactive)
GI50 (OVCAR-3): 1.71 µM (inactive)
GI50 (NCI-H460): 17.9 µM (inactive)
GI50 (SK-MEL-5): 19 µM (inactive)
GI50 (HOP-18): 3.48 µM (inactive)
GI50 (SW-620): 1.49 µM (inactive)
GI50 (ACHN): 19.9 µM (inactive)
GI50 (SF-295): 18.1 µM (inactive)
GI50 (SR): 2.1 µM (inactive)
GI50 (NCI-H522): 1.67 µM (inactive)
GI50 (SNB-75): 17.3 µM (inactive)
GI50 (SF-539): 17.3 µM (inactive)
GI50 (SK-MEL-2): 5.36 µM (inactive)
GI50 (OVCAR-8): 1.6 µM (inactive)
GI50 (IGROV-1): 2.04 µM (inactive)
GI50 (SN12C): 1.74 µM (inactive)
GI50 (K562): 1.82 µM (inactive)
GI50 (HCC 2998): 3.74 µM (inactive)
GI50 (LOX IMVI): 1.73 µM (inactive)
GI50 (OVCAR-4): 3.84 µM (inactive)
